From ChEMBL document CHEMBL4000207 (Bioorg Med Chem Lett, 2017)
Values after ≈ are worked out from the molar mass of the structure shown.

Tests used:
[1] = Lipophilicity, log D of the compound; type: physicochemical; conditions: octanol/water
[2] = Solubility of the compound; type: physicochemical
[3] = in vitro; conditions: human, liver microsomes
[4] = Intrinsic clearance in rat hepatocytes assessed per million cells; type: ADME, cell-based, Hepatocyte; conditions: read-out: CLH
[5] = in vitro; conditions: human, Caco-2
[6] = Half life in iv dosed rat; type: ADME, organism-based; conditions: in vivo
[7] = Clearance in iv dosed rat; type: ADME, organism-based; conditions: in vivo
[8] = Oral bioavailability in rat; type: ADME, organism-based; conditions: in vivo
[9] = Volume of distribution at steady state in iv dosed rat; type: ADME, organism-based; conditions: in vivo, read-out: Vdss

Row | Structure (SMILES) | logD [1] | solubility [2] [µM] | microsomal CLint [3] [µL/min/mg] | hepatocyte CLint [4] [µL/min/1e6 cells] | Papp A→B [5] [×10⁻⁶ cm/s] | further results
1 | Cn1nc(-c2cnc(N)c(-c3ccc(C(N)=O)cc3)n2)nc1C1(c2ccccc2)CC1 | 2.2 | 177 (≈ 72.8 µg/mL) | < 3 | 2 | 2 | –
2 | Cn1nc(-c2cnc(N)c(-c3cnn(C(N)=O)c3)n2)nc1C1(c2ccccc2)CC1 | 2.2 | – | – | – | – | –
3 | Cn1nc(-c2cnc(N)c(-n3ccc(C(N)=O)n3)n2)nc1C1(c2ccccc2)CC1 | 2.8 | – | – | – | – | –
4 | Cn1nc(-c2cnc(N)c(-c3ccc(N)nc3)n2)nc1C1(c2ccccc2)CC1 | 2 | – | – | – | – | –
5 | Cn1nc(-c2cnc(N)c(-n3cc(C(N)=O)cn3)n2)nc1C1(c2ccccc2)CC1 | 2.8 | – | – | – | – | –
6 | CN(C)S(=O)(=O)n1cc(-c2nc(-c3nc(C4(c5ccccc5)CC4)n(C)n3)cnc2N)cn1 | 2.8 | 11 (≈ 5.12 µg/mL) | 191 | 157 | 19 | –
7 | Cn1nc(-c2cnc(N)cn2)nc1C1(c2ccccc2)CC1 | 1.8 | – | – | – | – | –
8 | Cn1nc(-c2cnc(N)c(C#N)n2)nc1C1(c2ccccc2)CC1 | 2.2 | – | – | – | – | –
9 | Cn1nc(-c2cnc(N)c(-n3nnc4ccccc43)n2)nc1C1(c2ccccc2)CC1 | 4.3 | – | – | – | – | –
10 | Cn1nc(-c2cnc(N)c(-c3ccc(C(N)=O)c(F)c3)n2)nc1C1(c2ccccc2)CC1 | 2.2 | 32 (≈ 13.7 µg/mL) | < 3 | < 1 | 13 | half-life [6]: 3.4 h; clearance [7]: 12 mL/min/kg; bioavailability [8]: 41%; Vd [9]: 2.8 L/kg

More lines, main results first:

Row | logD [1] | solubility [2] [µM] | microsomal CLint [3] [µL/min/mg] | hepatocyte CLint [4] [µL/min/1e6 cells] | Papp A→B [5] [×10⁻⁶ cm/s] | Structure (SMILES) | further results
11 | 2.3 | – | – | – | – | Cc1n[nH]c(C)c1-c1nc(-c2nc(C3(c4ccccc4)CC3)n(C)n2)cnc1N | –
12 | 2.1 | 37 (≈ 13.3 µg/mL) | < 3 | 5 | 6.6 | Cn1nc(-c2cnc(N)c(-c3cn[nH]c3)n2)nc1C1(c2ccccc2)CC1 | –
13 | 2.5 | – | – | – | – | Cn1nc(-c2cnc(N)c(-c3ccc(F)nc3)n2)nc1C1(c2ccccc2)CC1 | –
14 | 3.6 | 3 (≈ 1.25 µg/mL) | 20 | 12 | 24 | Cn1nc(-c2cnc(N)c(-c3nnc(C(C)(C)C)o3)n2)nc1C1(c2ccccc2)CC1 | –
15 | 3 | – | – | – | – | Cn1nc(-c2cnc(N)c(-c3cc[nH]n3)n2)nc1C1(c2ccccc2)CC1 | –
